# “And” between values parts separate entries of the source, which are not always exact repeats. Equal values may be shown once.
# Legend:
# [1] = tested on: monkey primary hepatocytes; test: Metabolic disposition of [^14C]-Compound 1 and [^14C]-2′-C-methyl guanosine in monkey primary hepatocytes (incubation medium, cellular extracts, nucleotide levels); assay type: in vitro ADME, Cynomolgus monkey; conditions: for Major metabolites observed in cellular extracts (% of total radioactivity): 10 μM [^14C]-2′-C-methyl guanosine
# Outline: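 Rat, monkey or human primary hepatocytes on collagen I plates (1.6 million cells/mL) were incubated at 37° C with 1 or 10 μM C-8 [^14C]-labelled compound or 2′-C-methyl guanosine for 1, 4, 8 and 24 hours. Medium and 70% methanol cell extracts were analysed by LSC and radio-HPLC. Nucleotides were identified by alkaline phosphatase treatment and retention-time matching to standards.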
# rat primary hepatocytes = test: Metabolic disposition of [^14C]-Compound 1 and [^14C]-2′-C-methyl guanosine in rat primary hepatocytes (incubation medium, cellular extracts, nucleotide levels); assay type: in vitro ADME, Sprague Dawley rat
# Outline: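 Radio-HPLC and liquid scintillation counting quantified metabolites in incubation medium and in 70% methanol cell extracts. Samples came from cultured rat, monkey or human primary hepatocytes exposed at 37° C to 1 or 10 μM [^14C]-compound or [^14C]-2′-C-methyl guanosine, sampled at 1–24 hours. Phosphates were confirmed by phosphatase digestion to the nucleoside.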
# [2] = rat hepatocytes (Rs458), 1 μM [^14C]-Compound 1, 1 h
# [3] = rat hepatocytes (Rs458), 1 μM [^14C]-Compound 1, 8 h
# [4] = rat hepatocytes (Rs458), 1 μM [^14C]-Compound 1, 24 h
smiles,measurement,setting,value
"C[C@@]1(O)[C@H](O)[C@@H](CO)O[C@H]1n1cnc2c(=O)[nH]c(N)nc21 [2′-C-methyl guanosine, 9-(2-C-methyl-β-D-ribofuranosyl)guanine, reference compound]",metabolites observed in cellular extracts (% of total radioactivity),"[1]; monkey hepatocytes (Cy230, Cy234), 10 μM [^14C]-Compound 1, 1 h",1.68% and 3.04%
same,metabolites observed in cellular extracts (% of total radioactivity),"[1]; monkey hepatocytes (Cy230, Cy234), 10 μM [^14C]-Compound 1, 8 h",0.95% and 2.06%
same,metabolites observed in cellular extracts (% of total radioactivity),"[1]; monkey hepatocytes (Cy230, Cy234), 10 μM [^14C]-Compound 1, 24 h",2.31% and 1.25%
same,metabolites observed in cellular extracts (% of total radioactivity),"[1]; monkey hepatocytes (Cy234), 10 μM [^14C]-Compound 1, 4 h",1.35%
same,metabolites observed in medium (% of total radioactivity),"[1]; monkey hepatocytes (lot Cy234), 10 μM [^14C]-Compound 1, 4 h",6.8%
same,metabolites observed in medium (% of total radioactivity),"[1]; monkey hepatocytes (lots Cy230, Cy234), 10 μM [^14C]-Compound 1, 0 h",BLD^c and BLD
same,metabolites observed in medium (% of total radioactivity),"[1]; monkey hepatocytes (lots Cy230, Cy234), 10 μM [^14C]-Compound 1, 8 h",10.4% and 14.8%
same,metabolites observed in medium (% of total radioactivity),"[1]; monkey hepatocytes (lots Cy230, Cy234), 10 μM [^14C]-Compound 1, 24 h",48.8% and 35.6%
same,Major metabolites observed in cellular extracts (% of total radioactivity),"[1]; monkey hepatocytes Cy230, 1 h",96.4 % of total radioactivity
same,Major metabolites observed in cellular extracts (% of total radioactivity),"[1]; monkey hepatocytes Cy230, 8 h",77.3 % of total radioactivity
same,Major metabolites observed in cellular extracts (% of total radioactivity),"[1]; monkey hepatocytes Cy230, 24 h",65.0 % of total radioactivity
same,Major metabolites observed in cellular extracts (% of total radioactivity),"[1]; monkey hepatocytes Cy234, 1 h",86.9 % of total radioactivity
same,Major metabolites observed in cellular extracts (% of total radioactivity),"[1]; monkey hepatocytes Cy234, 4 h",57.9 % of total radioactivity
same,Major metabolites observed in cellular extracts (% of total radioactivity),"[1]; monkey hepatocytes Cy234, 8 h",45.8 % of total radioactivity
same,Major metabolites observed in cellular extracts (% of total radioactivity),"[1]; monkey hepatocytes Cy234, 24 h",29.0 % of total radioactivity
same,metabolites observed in cellular extracts (% of total radioactivity),"rat primary hepatocytes; rat hepatocytes (Rs448, Rs458), 10 μM [^14C]-Compound 1, 1 h",1.84% and 1.75%
same,metabolites observed in cellular extracts (% of total radioactivity),"rat primary hepatocytes; rat hepatocytes (Rs448, Rs458), 10 μM [^14C]-Compound 1, 4 h",5.04% and 3.78%
same,metabolites observed in cellular extracts (% of total radioactivity),"rat primary hepatocytes; rat hepatocytes (Rs448, Rs458), 10 μM [^14C]-Compound 1, 8 h",8.77% and 4.95%
same,metabolites observed in cellular extracts (% of total radioactivity),"rat primary hepatocytes; rat hepatocytes (Rs448, Rs458), 10 μM [^14C]-Compound 1, 24 h",14.7% and 16.9%
same,metabolites observed in medium (% of total radioactivity),"rat primary hepatocytes; rat hepatocytes (Rs458), 1 μM [^14C]-Compound 1, 0 h",BLD
same,metabolites observed in cellular extracts (% of total radioactivity),rat primary hepatocytes; [2],1.01%
same,metabolites observed in medium (% of total radioactivity),rat primary hepatocytes; [2],BLD
same,metabolites observed in cellular extracts (% of total radioactivity),rat primary hepatocytes; [3],5.58%
same,metabolites observed in medium (% of total radioactivity),rat primary hepatocytes; [3],29.4%
same,metabolites observed in cellular extracts (% of total radioactivity),rat primary hepatocytes; [4],13.1%
same,metabolites observed in medium (% of total radioactivity),rat primary hepatocytes; [4],58% and 58.3%
same,metabolites observed in medium (% of total radioactivity),"rat primary hepatocytes; rat hepatocytes (lots Rs448, Rs458), 10 μM [^14C]-Compound 1, 0 h",BLD^b and BLD
same,metabolites observed in medium (% of total radioactivity),"rat primary hepatocytes; rat hepatocytes (lots Rs448, Rs458), 10 μM [^14C]-Compound 1, 1 h",0.8% and 0.5%
same,metabolites observed in medium (% of total radioactivity),"rat primary hepatocytes; rat hepatocytes (lots Rs448, Rs458), 10 μM [^14C]-Compound 1, 4 h",17.5% and 10.1% and 17.0% and 10.0%
same,metabolites observed in medium (% of total radioactivity),"rat primary hepatocytes; rat hepatocytes (lots Rs448, Rs458), 10 μM [^14C]-Compound 1, 8 h",41.5% and 23.4% and 41.0% and 23.0%
same,metabolites observed in medium (% of total radioactivity),"rat primary hepatocytes; rat hepatocytes (lots Rs448, Rs458), 10 μM [^14C]-Compound 1, 24 h",67% and 68.5% and 65.3% and 69.0% and 65.0%
same,Major metabolites observed in cellular extracts (% of total radioactivity),"rat primary hepatocytes; rat hepatocytes Rs448, 10 μM [^14C]-2′-C-methyl guanosine, 1 h",93.6 % of total radioactivity
same,Major metabolites observed in cellular extracts (% of total radioactivity),"rat primary hepatocytes; rat hepatocytes Rs448, 10 μM [^14C]-2′-C-methyl guanosine, 4 h",78.6 % of total radioactivity
same,Major metabolites observed in cellular extracts (% of total radioactivity),"rat primary hepatocytes; rat hepatocytes Rs448, 10 μM [^14C]-2′-C-methyl guanosine, 8 h",69.2 % of total radioactivity
same,Major metabolites observed in cellular extracts (% of total radioactivity),"rat primary hepatocytes; rat hepatocytes Rs448, 10 μM [^14C]-2′-C-methyl guanosine, 24 h",51.5 % of total radioactivity
same,Major metabolites observed in cellular extracts (% of total radioactivity),"rat primary hepatocytes; rat hepatocytes Rs458, 1 μM [^14C]-2′-C-methyl guanosine, 1 h",93.4 % of total radioactivity
same,Major metabolites observed in cellular extracts (% of total radioactivity),"rat primary hepatocytes; rat hepatocytes Rs458, 1 μM [^14C]-2′-C-methyl guanosine, 8 h",68.7 % of total radioactivity
same,Major metabolites observed in cellular extracts (% of total radioactivity),"rat primary hepatocytes; rat hepatocytes Rs458, 1 μM [^14C]-2′-C-methyl guanosine, 24 h",49.2 % of total radioactivity
same,Major metabolites observed in cellular extracts (% of total radioactivity),"rat primary hepatocytes; rat hepatocytes Rs458, 10 μM [^14C]-2′-C-methyl guanosine, 1 h",94.5 % of total radioactivity
same,Major metabolites observed in cellular extracts (% of total radioactivity),"rat primary hepatocytes; rat hepatocytes Rs458, 10 μM [^14C]-2′-C-methyl guanosine, 4 h",79.8 % of total radioactivity
same,Major metabolites observed in cellular extracts (% of total radioactivity),"rat primary hepatocytes; rat hepatocytes Rs458, 10 μM [^14C]-2′-C-methyl guanosine, 8 h",67.2 % of total radioactivity
same,Major metabolites observed in cellular extracts (% of total radioactivity),"rat primary hepatocytes; rat hepatocytes Rs458, 10 μM [^14C]-2′-C-methyl guanosine, 24 h",47.1 % of total radioactivity

# From US20100003217A1, “Compounds and Pharmaceutical Compositions for the Treatment of Viral Infections” (priority 2008, published 2010)
